{"source": "PubChem BioAssay (NCI)", "assay_in_all_cases": "growth of human tumour cells (NCI), 48 h", "key": {"MALME-3M melanoma": {"tested_on": "MALME-3M melanoma"}, "SW-620 colon": {"tested_on": "SW-620 colon"}, "EKVX NSCLC": {"tested_on": "EKVX NSCLC"}, "XF 498 CNS": {"tested_on": "XF 498 CNS"}, "OVCAR-8 ovarian": {"tested_on": "OVCAR-8 ovarian"}, "KM20L2 colon": {"tested_on": "KM20L2 colon"}, "SK-MEL-2 melanoma": {"tested_on": "SK-MEL-2 melanoma"}, "HL-60(TB) leukemia": {"tested_on": "HL-60(TB) leukemia"}, "OVCAR-4 ovarian": {"tested_on": "OVCAR-4 ovarian"}, "DMS 273 small cell lung": {"tested_on": "DMS 273 small cell lung"}, "DMS 114 small cell lung": {"tested_on": "DMS 114 small cell lung"}, "SF-295 CNS": {"tested_on": "SF-295 CNS"}, "HCT-116 colon": {"tested_on": "HCT-116 colon"}, "ACHN renal": {"tested_on": "ACHN renal"}, "SNB-75 CNS": {"tested_on": "SNB-75 CNS"}, "NCI-H23 lung": {"tested_on": "NCI-H23 lung"}, "UO-31 renal": {"tested_on": "UO-31 renal"}, "IGROV1 ovarian": {"tested_on": "IGROV1 ovarian"}, "HOP-18 NSCLC": {"tested_on": "HOP-18 NSCLC"}, "KM12 colon": {"tested_on": "KM12 colon"}, "RXF 393 renal": {"tested_on": "RXF 393 renal"}, "NCI-H522 lung": {"tested_on": "NCI-H522 lung"}, "RXF-631 renal": {"tested_on": "RXF-631 renal"}, "HCT-15 colon": {"tested_on": "HCT-15 colon"}, "U251 CNS": {"tested_on": "U251 CNS"}, "SK-MEL-5 melanoma": {"tested_on": "SK-MEL-5 melanoma"}, "RPMI-8226 leukemia": {"tested_on": "RPMI-8226 leukemia"}, "SK-OV-3 ovarian": {"tested_on": "SK-OV-3 ovarian"}, "HCC-2998 colon": {"tested_on": "HCC-2998 colon"}, "COLO 205 colon": {"tested_on": "COLO 205 colon"}, "M19-MEL melanoma": {"tested_on": "M19-MEL melanoma"}, "SF-268 CNS": {"tested_on": "SF-268 CNS"}, "OVCAR-3 ovarian": {"tested_on": "OVCAR-3 ovarian"}, "SNB-19 CNS": {"tested_on": "SNB-19 CNS"}, "K-562 leukemia": {"tested_on": "K-562 leukemia"}, "M14 melanoma": {"tested_on": "M14 melanoma"}, "OVCAR-5 ovarian": {"tested_on": "OVCAR-5 ovarian"}, "786-0 renal": {"tested_on": "786-0 renal"}, "LOX IMVI melanoma": {"tested_on": "LOX IMVI melanoma"}, "HOP-92 NSCLC": {"tested_on": "HOP-92 NSCLC"}, "CCRF-CEM leukemia": {"tested_on": "CCRF-CEM leukemia"}, "DLD-1 colon": {"tested_on": "DLD-1 colon"}, "HT29 colon": {"tested_on": "HT29 colon"}, "SF-539 CNS": {"tested_on": "SF-539 CNS"}, "SNB-78 CNS": {"tested_on": "SNB-78 CNS"}, "A549 NSCLC": {"tested_on": "A549 NSCLC"}, "CAKI-1 renal": {"tested_on": "CAKI-1 renal"}, "LXFL 529 NSCLC": {"tested_on": "LXFL 529 NSCLC"}, "A498 renal": {"tested_on": "A498 renal"}, "HOP-62 NSCLC": {"tested_on": "HOP-62 NSCLC"}, "UACC-257 melanoma": {"tested_on": "UACC-257 melanoma"}, "SK-MEL-28 melanoma": {"tested_on": "SK-MEL-28 melanoma"}, "UACC-62 melanoma": {"tested_on": "UACC-62 melanoma"}, "NCI-H226 lung": {"tested_on": "NCI-H226 lung"}, "NCI-H460 lung": {"tested_on": "NCI-H460 lung"}, "TK-10 renal": {"tested_on": "TK-10 renal"}}, "note": "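Briefly, cells in 96-well plates were exposed to five compound concentrations for 48 h, and endpoints were estimated by linear interpolation. TGI denotes the concentration required for complete inhibition of growth.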"}
{"smiles": "Cn1c(=O)c(N=Nc2c(=O)n(C)c(=O)n3c2[nH]c2ccccc23)c2[nH]c3ccccc3n2c1=O", "values": [{"measurement": "TGI", "setting": "MALME-3M melanoma", "value": "> 100", "unit": "µM"}, {"measurement": "TGI", "setting": "SW-620 colon", "value": "> 100", "unit": "µM"}, {"measurement": "TGI", "setting": "EKVX NSCLC", "value": "> 100", "unit": "µM"}, {"measurement": "TGI", "setting": "XF 498 CNS", "value": "> 100", "unit": "µM"}, {"measurement": "TGI", "setting": "OVCAR-8 ovarian", "value": "> 100", "unit": "µM"}, {"measurement": "TGI", "setting": "KM20L2 colon", "value": "> 100", "unit": "µM"}, {"measurement": "TGI", "setting": "SK-MEL-2 melanoma", "value": "> 100", "unit": "µM"}, {"measurement": "TGI", "setting": "HL-60(TB) leukemia", "value": "> 100", "unit": "µM"}, {"measurement": "TGI", "setting": "OVCAR-4 ovarian", "value": "> 100", "unit": "µM"}, {"measurement": "TGI", "setting": "DMS 273 small cell lung", "value": "> 100", "unit": "µM"}, {"measurement": "TGI", "setting": "DMS 114 small cell lung", "value": "> 100", "unit": "µM"}, {"measurement": "TGI", "setting": "SF-295 CNS", "value": "> 100", "unit": "µM"}, {"measurement": "TGI", "setting": "HCT-116 colon", "value": "> 100", "unit": "µM"}, {"measurement": "TGI", "setting": "ACHN renal", "value": "> 100", "unit": "µM"}, {"measurement": "TGI", "setting": "SNB-75 CNS", "value": 91.6, "unit": "µM"}, {"measurement": "TGI", "setting": "NCI-H23 lung", "value": "> 100", "unit": "µM"}, {"measurement": "TGI", "setting": "UO-31 renal", "value": "> 100", "unit": "µM"}, {"measurement": "TGI", "setting": "IGROV1 ovarian", "value": "> 100", "unit": "µM"}, {"measurement": "TGI", "setting": "HOP-18 NSCLC", "value": "> 100", "unit": "µM"}, {"measurement": "TGI", "setting": "KM12 colon", "value": "> 100", "unit": "µM"}, {"measurement": "TGI", "setting": "RXF 393 renal", "value": "> 100", "unit": "µM"}, {"measurement": "TGI", "setting": "NCI-H522 lung", "value": "> 100", "unit": "µM"}, {"measurement": "TGI", "setting": "RXF-631 renal", "value": "> 100", "unit": "µM"}, {"measurement": "TGI", "setting": "HCT-15 colon", "value": "> 100", "unit": "µM"}, {"measurement": "TGI", "setting": "U251 CNS", "value": "> 100", "unit": "µM"}, {"measurement": "TGI", "setting": "SK-MEL-5 melanoma", "value": "> 100", "unit": "µM"}, {"measurement": "TGI", "setting": "RPMI-8226 leukemia", "value": "> 100", "unit": "µM"}, {"measurement": "TGI", "setting": "SK-OV-3 ovarian", "value": "> 100", "unit": "µM"}, {"measurement": "TGI", "setting": "HCC-2998 colon", "value": "> 100", "unit": "µM"}, {"measurement": "TGI", "setting": "COLO 205 colon", "value": "> 100", "unit": "µM"}, {"measurement": "TGI", "setting": "M19-MEL melanoma", "value": "> 100", "unit": "µM"}, {"measurement": "TGI", "setting": "SF-268 CNS", "value": "> 100", "unit": "µM"}, {"measurement": "TGI", "setting": "OVCAR-3 ovarian", "value": "> 100", "unit": "µM"}, {"measurement": "TGI", "setting": "SNB-19 CNS", "value": 61.1, "unit": "µM"}, {"measurement": "TGI", "setting": "K-562 leukemia", "value": "> 100", "unit": "µM"}, {"measurement": "TGI", "setting": "M14 melanoma", "value": "> 100", "unit": "µM"}, {"measurement": "TGI", "setting": "OVCAR-5 ovarian", "value": "> 100", "unit": "µM"}, {"measurement": "TGI", "setting": "786-0 renal", "value": "> 100", "unit": "µM"}, {"measurement": "TGI", "setting": "LOX IMVI melanoma", "value": "> 100", "unit": "µM"}, {"measurement": "TGI", "setting": "HOP-92 NSCLC", "value": "> 100", "unit": "µM"}, {"measurement": "TGI", "setting": "CCRF-CEM leukemia", "value": "> 100", "unit": "µM"}, {"measurement": "TGI", "setting": "DLD-1 colon", "value": "> 100", "unit": "µM"}, {"measurement": "TGI", "setting": "HT29 colon", "value": "> 100", "unit": "µM"}, {"measurement": "TGI", "setting": "SF-539 CNS", "value": "> 100", "unit": "µM"}, {"measurement": "TGI", "setting": "SNB-78 CNS", "value": "> 100", "unit": "µM"}, {"measurement": "TGI", "setting": "A549 NSCLC", "value": "> 100", "unit": "µM"}, {"measurement": "TGI", "setting": "CAKI-1 renal", "value": "> 100", "unit": "µM"}, {"measurement": "TGI", "setting": "LXFL 529 NSCLC", "value": "> 100", "unit": "µM"}, {"measurement": "TGI", "setting": "A498 renal", "value": "> 100", "unit": "µM"}, {"measurement": "TGI", "setting": "HOP-62 NSCLC", "value": "> 100", "unit": "µM"}, {"measurement": "TGI", "setting": "UACC-257 melanoma", "value": "> 100", "unit": "µM"}, {"measurement": "TGI", "setting": "SK-MEL-28 melanoma", "value": "> 100", "unit": "µM"}, {"measurement": "TGI", "setting": "UACC-62 melanoma", "value": "> 100", "unit": "µM"}, {"measurement": "TGI", "setting": "NCI-H226 lung", "value": "> 100", "unit": "µM"}, {"measurement": "TGI", "setting": "NCI-H460 lung", "value": "> 100", "unit": "µM"}, {"measurement": "TGI", "setting": "TK-10 renal", "value": "> 100", "unit": "µM"}]}
